Test results as given in PubChem BioAssay AID2060902 (Molecular Pharmacology Branch, DTP, NCI, 2025).

Test system: 485368-065-R3-J5-PDC spheroids with HUVEC/MSC, viability
Test: Anticancer human tumor 485368-065-R3-J5-PDC patient-derived pancreatic carcinoma cell line growth inhibition [RAS]
Conditions: for IC50: curve of first compound; for viability, T/C: stronger effect = lower value
How it was run: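 Multi-cell-type spheroids: tumor cells plus HUVEC endothelial cells and mesenchymal stem cells. RAS-pathway inhibitors were combined with targeted agents, each dosed in half-log steps down from clinical Cmax, or from 10 microM when Cmax was unknown.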

[1] = second compound 0.000949 µM, first compound 0.0316 µM
[2] = second compound 0.000949 µM, first compound 0.1 µM
[3] = second compound 0.000949 µM, first compound 0.316 µM
[4] = second compound 0.000949 µM, first compound 1 µM
[5] = second compound 0.003 µM, first compound 0.0316 µM
[6] = second compound 0.003 µM, first compound 0.1 µM
[7] = second compound 0.003 µM, first compound 0.316 µM
[8] = second compound 0.003 µM, first compound 1 µM
[9] = second compound 0.00949 µM, first compound 0.0316 µM
[10] = second compound 0.00949 µM, first compound 0.1 µM
[11] = second compound 0.00949 µM, first compound 0.316 µM
[12] = second compound 0.00949 µM, first compound 1 µM
[13] = second compound 0.03 µM, first compound 0.0316 µM
[14] = second compound 0.03 µM, first compound 0.1 µM
[15] = second compound 0.03 µM, first compound 0.316 µM
[16] = second compound 0.03 µM, first compound 1 µM
[17] = second compound 0.0949 µM, first compound 0.0316 µM
[18] = second compound 0.0949 µM, first compound 0.1 µM
[19] = second compound 0.0949 µM, first compound 0.316 µM
[20] = second compound 0.0949 µM, first compound 1 µM
[21] = second compound 0.3 µM, first compound 0.0316 µM
[22] = second compound 0.3 µM, first compound 0.1 µM
[23] = second compound 0.3 µM, first compound 0.316 µM
[24] = second compound 0.3 µM, first compound 1 µM
[25] = second compound 0.000949 µM, first compound 3.16 µM
[26] = second compound 0.000949 µM, first compound 10 µM
[27] = second compound 0.003 µM, first compound 3.16 µM
[28] = second compound 0.003 µM, first compound 10 µM
[29] = second compound 0.00949 µM, first compound 3.16 µM
[30] = second compound 0.00949 µM, first compound 10 µM
[31] = second compound 0.03 µM, first compound 3.16 µM
[32] = second compound 0.03 µM, first compound 10 µM
[33] = second compound 0.0949 µM, first compound 3.16 µM
[34] = second compound 0.0949 µM, first compound 10 µM
[35] = second compound 0.3 µM, first compound 3.16 µM
[36] = second compound 0.3 µM, first compound 10 µM
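Also: spheroids exposed to agents for seven days before readout.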

## CCN1CCN(Cc2ccc(Nc3ncc(F)c(-c4cc(F)c5nc(C)n(C(C)C)c5c4)n3)nc2)CC1 + CCn1c(-c2cccnc2C(C)OC)c2c3cc(ccc31)N1CCOC(CC(NC(=O)C(C(C)C)N(C)C(=O)C3(F)CCN(C(=O)C#CC(C)(C)N(C)C)CC3)C(=O)N3CCCC(N3)C(=O)OCC(C)(C)C2)C1
Second compound 0.000949 µM
  IC50: > 1 µM
Second compound 0.003 µM
  IC50: 0.639 µM
Second compound 0.00949 µM
  IC50: 0.941 µM
Second compound 0.03 µM
  IC50: 0.693 µM
Second compound 0.0949 µM
  IC50: 0.888 µM
Second compound 0.3 µM
  IC50: > 1 µM
Second compound 0.000949 µM, first compound 0.00316 µM
  viability, T/C: 103%
Second compound 0.000949 µM, first compound 0.01 µM
  viability, T/C: 88.8%
[1]
  viability, T/C: 103%
[2]
  viability, T/C: 77.9%
[3]
  viability, T/C: 63.5%
[4]
  viability, T/C: 51.5%
Second compound 0.003 µM, first compound 0.00316 µM
  viability, T/C: 98.4%
Second compound 0.003 µM, first compound 0.01 µM
  viability, T/C: 91.5%
[5]
  viability, T/C: 96.4%
[6]
  viability, T/C: 77.3%
[7]
  viability, T/C: 58.2%
[8]
  viability, T/C: 45%
Second compound 0.00949 µM, first compound 0.00316 µM
  viability, T/C: 96.8%
Second compound 0.00949 µM, first compound 0.01 µM
  viability, T/C: 100%
[9]
  viability, T/C: 91.3%
[10]
  viability, T/C: 84.7%
[11]
  viability, T/C: 60.9%
[12]
  viability, T/C: 49.6%
Second compound 0.03 µM, first compound 0.00316 µM
  viability, T/C: 96.8%
Second compound 0.03 µM, first compound 0.01 µM
  viability, T/C: 100%
[13]
  viability, T/C: 95.4%
[14]
  viability, T/C: 82.6%
[15]
  viability, T/C: 70.5%
[16]
  viability, T/C: 40.7%
Second compound 0.0949 µM, first compound 0.00316 µM
  viability, T/C: 96.8%
Second compound 0.0949 µM, first compound 0.01 µM
  viability, T/C: 95.1%
[17]
  viability, T/C: 96.1%
[18]
  viability, T/C: 83.4%
[19]
  viability, T/C: 66.3%
[20]
  viability, T/C: 48%
Second compound 0.3 µM, first compound 0.00316 µM
  viability, T/C: 96.8%
Second compound 0.3 µM, first compound 0.01 µM
  viability, T/C: 104%
[21]
  viability, T/C: 89.3%
[22]
  viability, T/C: 88.8%
[23]
  viability, T/C: 63.7%
[24]
  viability, T/C: 55.8%

## C[C@@H](NC(=O)c1ncnc(N)c1Cl)c1ncc(C(=O)Nc2cc(C(F)(F)F)c(Cl)cn2)s1 + CCn1c(-c2cccnc2C(C)OC)c2c3cc(ccc31)N1CCOC(CC(NC(=O)C(C(C)C)N(C)C(=O)C3(F)CCN(C(=O)C#CC(C)(C)N(C)C)CC3)C(=O)N3CCCC(N3)C(=O)OCC(C)(C)C2)C1
Second compound 0.000949 µM
  IC50: > 10 µM
Second compound 0.003 µM
  IC50: > 10 µM
Second compound 0.00949 µM
  IC50: > 10 µM
Second compound 0.03 µM
  IC50: > 10 µM
Second compound 0.0949 µM
  IC50: > 10 µM
Second compound 0.3 µM
  IC50: > 10 µM
[1]
  viability, T/C: 107%
[2]
  viability, T/C: 102%
[3]
  viability, T/C: 106%
[4]
  viability, T/C: 93.6%
[25]
  viability, T/C: 92.6%
[26]
  viability, T/C: 86.4%
[5]
  viability, T/C: 102%
[6]
  viability, T/C: 107%
[7]
  viability, T/C: 102%
[8]
  viability, T/C: 94.6%
[27]
  viability, T/C: 106%
[28]
  viability, T/C: 80.3%
[9]
  viability, T/C: 102%
[10]
  viability, T/C: 110%
[11]
  viability, T/C: 103%
[12]
  viability, T/C: 105%
[29]
  viability, T/C: 96.5%
[30]
  viability, T/C: 89%
[13]
  viability, T/C: 102%
[14]
  viability, T/C: 120%
[15]
  viability, T/C: 106%
[16]
  viability, T/C: 105%
[31]
  viability, T/C: 107%
[32]
  viability, T/C: 94.6%
[17]
  viability, T/C: 102%
[18]
  viability, T/C: 111%
[19]
  viability, T/C: 105%
[20]
  viability, T/C: 96.5%
[33]
  viability, T/C: 104%
[34]
  viability, T/C: 76.1%
[21]
  viability, T/C: 97.5%
[22]
  viability, T/C: 118%
[23]
  viability, T/C: 111%
[24]
  viability, T/C: 108%
[35]
  viability, T/C: 106%
[36]
  viability, T/C: 79.2%

## Cc1nc(N2CCC3(CC2)COC(C)C3N)c(CO)nc1Sc1ccnc(N)c1Cl (stereo unspecified) + CCn1c(-c2cccnc2C(C)OC)c2c3cc(ccc31)N1CCOC(CC(NC(=O)C(C(C)C)N(C)C(=O)C3(F)CCN(C(=O)C#CC(C)(C)N(C)C)CC3)C(=O)N3CCCC(N3)C(=O)OCC(C)(C)C2)C1
Second compound 0.000949 µM
  IC50: > 10 µM
Second compound 0.003 µM
  IC50: > 10 µM
Second compound 0.00949 µM
  IC50: > 10 µM
Second compound 0.03 µM
  IC50: > 10 µM
Second compound 0.0949 µM
  IC50: > 10 µM
Second compound 0.3 µM
  IC50: > 10 µM
[1]
  viability, T/C: 94.1%
[2]
  viability, T/C: 108%
[3]
  viability, T/C: 86.1%
[4]
  viability, T/C: 79.1%
[25]
  viability, T/C: 78.1%
[26]
  viability, T/C: 70.2%
[5]
  viability, T/C: 95.8%
[6]
  viability, T/C: 98%
[7]
  viability, T/C: 95.4%
[8]
  viability, T/C: 84.8%
[27]
  viability, T/C: 80.3%
[28]
  viability, T/C: 79.5%
[9]
  viability, T/C: 90%
[10]
  viability, T/C: 99.6%
[11]
  viability, T/C: 97.9%
[12]
  viability, T/C: 96.2%
[29]
  viability, T/C: 80.4%
[30]
  viability, T/C: 72.7%
[13]
  viability, T/C: 104%
[14]
  viability, T/C: 96.9%
[15]
  viability, T/C: 85.3%
[16]
  viability, T/C: 103%
[31]
  viability, T/C: 83.9%
[32]
  viability, T/C: 61.7%
[17]
  viability, T/C: 90.5%
[18]
  viability, T/C: 92.8%
[19]
  viability, T/C: 84.2%
[20]
  viability, T/C: 95.1%
[33]
  viability, T/C: 83.9%
[34]
  viability, T/C: 74.2%
[21]
  viability, T/C: 110%
[22]
  viability, T/C: 94.6%
[23]
  viability, T/C: 83.2%
[24]
  viability, T/C: 87.2%
[35]
  viability, T/C: 85.5%
[36]
  viability, T/C: 63.3%
